In patent publication US8044201B2, “Stem cell cultures” (The Scripps Research Institute, priority 2008, dated 2011):
Entries after “also recorded” stand apart in the source; their conditions may differ. Blank lines part the entries; values can stand above or below the compound they belong to.

Experiments:
hESCs [1] = assay: Cell adhesion assay of dissociated hESCs; assay type: cell-based, human
Description: Cell adhesion assays were performed in 96-well microtiter plates coated with Matrigel. After trypsin, hESCs were resuspended in the chemically-defined media containing the desired compounds. Cells were then added to the microtiter wells and incubated for 3 h at 37° C. Unbound and loosely bound cells were removed by shaking and washing, and the remaining cells were then fixed immediately. The wells were washed 3 times with 200 μl of H2O, and attached cells were stained with Crystal Violet (Sigma). The absorbance of each well at 570 nm was then measured. For experiments with blocking antibodies, cells were pre-incubated with antibodies on ice for 30 min, and adhesion assays were performed in the presence of antibodies. Each sample was assayed independently for three times.

hESCs [2] = assay: Long-term serial passage of hESCs in Tzv or Ptn-containing chemically-defined medium (morphology, pluripotency markers, karyotype); assay type: cell-based, human; conditions: serially passaged for more than 20 generations in compound-containing chemically-defined medium
Description: (§1) Human ESC lines H1, HUES7 and HUES9 were cultured on irradiated MEF feeder cells in DMEM-F12 supplemented with 2 mM L-glutamine, 1× nonessential amino acids, 20% serum replacement (Invitrogen) and 10 ng/ml basic Fibroblast growth factor (Invitrogen). Chemically-defined and feeder-free hESC culture was described previously (Yao, S. et al., Proc Natl Acad Sci USA 103 (18):6907-6912 (2006)). Briefly, hESCs were grown on Matrigel-coated tissue culture plates in N2B27-CDM (DMEM-F12 supplemented with 1× N2 supplements, 1× B27 supplements, 2 mM L-glutamine, 0.11 mM 2-mercaptoethanol, 1× nonessential amino acids, and 0.5 mg/ml BSA (fraction V)) and 20 ng/ml bFGF. Human ESCs were passaged every 5-6 days with 0.05% trypsin.
Immunostaining was performed as described previously (Yao, S. et al., Proc Natl Acad Sci USA 103 (18):6907-6912 (2006)). Briefly, cells were fixed with 4% paraformaldehyde at room temperature (RT) for 15 min. The cells were then incubated at RT in blocking buffer for 1 hour. […]
Teratoma formation experiments were performed by injecting 3-5 million hESCs (maintained in the presence of compounds Tvz or Ptn) under the kidney capsule of nude mice. After 4-5 weeks, all mice developed teratomas, which were removed and then immunohistologically analyzed by The Scripps Research Institute Research Histology Service and Animal Resources. […]

[3] = tested on: human embryonic stem cell, mouse embryonic stem cell, multiple neural stem cells, skin stem cells, mesenchymal stem cells, hematopoietic stem cells, stromal …; assay: Survival and anti-differentiation of stem cells ex vivo after isolation; assay type: cell-based; conditions: contacted immediately after isolation of the cells
Source text: In some embodiments, the invention provides methods of promoting survival and anti-differentiation in stem cells ex-vivo.

[4] = tested on: primary human pancreatic islets/beta cells; assay: Cell death of dispersed primary pancreatic islets/beta cells plated as single cells on matrigel or laminin; assay type: cell-based; conditions: 1-2 mM added to the media
Description: For example, the inventors dispersed primary human pancreatic islets/beta cells plated as single cells onto a tissue culture plate that was coated with matrigel or laminin. […] Accordingly, in some embodiments, a compound of the present invention is administered to an individual in need of pancreatic beta and/or islet cells, wherein administration of the compound results in an increase in the number of beta or islet cells in the individual.

[5] = tested on: epithelial to mesenchymal transition/EMT; assay: Epithelial to mesenchymal transition (EMT) / MET; assay type: cell-based
E-cadherin = E-cadherin level in hESCs after trypsin dissociation (Western blot, flow cytometry, semiquantitative RT-PCR); assay type: cell-based, human
Description: (§2) To assess the expression of E-cadherin, activated integrin and SSEA4, dissociated cells (3×10^5) were washed with PBS and resuspended in PBS containing 2% goat serum. Cells were then incubated with the appropriate antibody for 1 h at 4° C., washed with the blocking solution, and labeled with FITC-conjugated secondary antibody for 30 min at 4° C. Cells were then washed and analyzed on a FACS Calibur flow cytometer.

[6] = tested on: E-cadherins to EGFR1 and ERB2; assay: Immunoprecipitation of E-cadherins with EGFR1 and ERB2 in hESCs; assay type: cell-based, human
Source text: ALP detection kit and integrin antibodies were from Chemicon. AG825 (Erb2 inhibitor), AG1478 (EGFR inhibitor), PPP (IGFR1 inhibitor) were purchased from Calbiochem. Antibodies raised against the intracytoplasmic tail of E-cadherins (Transduction Laboratories, Lexington, Ky.) were used for immunoprecipitation. The antibody TS2/16 was from Pierce. Antibodies to the extracellular domain of E-cadherin molecule were from Zymed (Carlsbad). Antibodies against extracellular signal-regulated kinase/MAPK, EGFR1, ERB2, GADPH and phosphorylated form of AKT were from Cell Signaling. Mouse monoclonal anti-phosphotyrosine (4G-10 clone) was from Upstate Biotechnology. Ptn and Tzv were added to culture medium at 2 μM.

hESCs [7] = assay: Cell death / survival analysis of dissociated hESCs in adherent (Matrigel) or suspension culture; assay type: cell-based, human; conditions: for survival of dissociated hESCs in adherent culture: Matrigel-coated plate; for survival of dissociated hESCs in adherent culture / survival of dissociated hESCs in suspension culture: 2 μM
Description: as §1
The hESCs under different treatments were dissociated by trypsin and fixed by 4% paraformaldehyde. And the staining was carried out according to the manufacturer's instructions (MBL Laboratories, Watertown, Mass.). After staining, samples were analysed by flow cytometry using a FACS Calibur flow cytometer (BD).

[8] = tested on: mouse P1 cortical explants; assay: Neurite / axon outgrowth from cortical explants; assay type: cell-based
Description: Compounds of formula I and III (i.e., Tvz and Ptn) are effective at promoting axonal regeneration and functional recovery in injured central nervous system. […] Tzv (3 μM) was tested on mouse P1 cortical explants, with axon outgrowth as an outcome read-out. Tzv was added to the medium 20 minutes after plating, with DMSO as a control. […] Accordingly, in some embodiments, a compound of the present invention is administered to an individual having a central nervous system injury or who is in need or would otherwise benefit from axonal regeneration.

β1 integrin = assay: Active conformation of β1 integrin in hESCs (HUTS-21 binding, flow cytometry and immunostaining); assay type: cell-based, human; conditions: for level of HUTS-21 binding (activated β1 integrin): trypsin-dissociated hESCs
Source text: To gain insights into the mechanism of β1 integrin regulation by Tzv and Ptn, we investigated whether the compounds' effect is due to changes of integrin expression. In contrast to E-cadherin, β1 integrin was not cleaved by trypsin. […] Thus, Tzv and Ptn are likely to affect cell adhesion by modulating integrin activity (FIGS. 3d,e). To examine the effects of compound treatment on the activity of β1 integrin, we used the monoclonal antibody HUTS-21, which specifically binds to the activated form of the β1 integrin (Luque, A. et al., J Biol Chem 271 (19):11067-11075 (1996)).
as §2

ERK and AKT = assay: Western blot of ERK and AKT phosphorylation in dissociated hESCs; assay type: cell-based, human
growth factor receptor = assay: Western blot of growth factor receptor phosphorylation in hESCs; assay type: cell-based, human; conditions: hESCs treated for 2 h, DMSO control
hESCs [9] = assay: ALP positive colony formation by dissociated hESCs (clonal / low-density survival assay); assay type: cell-based, human; conditions: PKC agonist treatment
Description: as §1
For clonal survival assays, single hESCs were diluted to clonal density and plated onto 96-well Matrigel-coated plate. For low-density survival assays, 500 cells were plated onto 96-well Matrigel-coated plate. To visualize hESC colonies, cultures were fixed in 4% paraformaldehyde in PBS for 5 min, washed once in PBS, then stained for alkaline phosphatase activity as described in manufacturer's instructions. ALP positive colonies were counted on an inverted microscope.

Structure (SMILES): CN(C)CCCn1cc(C2=C(c3c[nH]c4ccccc34)C(=O)NC2=O)c2ccccc21 [bisindolylmaleimide I, reference compound]
- effect on increased cell adhesion induced by Ptn (hESCs [1]; in combination with Ptn): antagonize
- effect on cell adhesion induced by Tzv (hESCs [1]; in combination with Tzv): no effect

- binding of E-cadherins to EGFR1 and ERB2 [6]: induced binding
- level of HUTS-21 binding (activated β1 integrin) (β1 integrin): increased
Structure (SMILES): O=C(NCc1ccccc1)c1csc(Nc2ccncn2)n1 [Tzv, N-benzyl-2-(pyrimidin-4-ylamino)thiazole-4-carboxamide]
- maintenance of hESC morphology, pluripotency markers and karyotype (hESCs [2]): maintained the characteristic morphology of hESCs, the expression of typical pluripotency markers, and normal karyotype
- survival and anti-differentiation of stem cells [3]: effective in promoting survival and anti-differentiation
- cell death of pancreatic islets/beta cells [4]: cell death was inhibited
- induction of MET and inhibition of EMT [5]: induce MET (the reverse of EMT) and inhibit EMT
- full-length E-cadherin expression (Western blot) (E-cadherin; hESCs after trypsin dissociation): significantly increased
- cell surface E-cadherins (flow cytometry) (E-cadherin; hESCs after trypsin treatment): significantly increased
- E-cadherin transcripts (semiquantitative RT-PCR) (E-cadherin; vs mock controls): comparable amounts
- survival of dissociated hESCs in adherent culture (hESCs [7]): greatly improved survival; also recorded: dramatic effect on survival
- cell aggregate formation in suspension (hESCs [7]; hESCs grown in suspension): formed nice cell aggregates
- survival of dissociated hESCs in suspension culture (hESCs [7]): greatly improved survival
- adhesion of dissociated hESCs to Matrigel or laminin (hESCs [1]): dramatically increased adhesion
- adhesion of hESCs to gelatin or poly-lysine (hESCs [1]): not affected
- axon outgrowth ([8]; 3 μM, added 20 minutes after plating, observed 4 days, DMSO control): dramatic effect in promoting axon outgrowth
- neurite outgrowth from primary neuronal cells ([8]; primary neuronal cells from mice): promote neurite outgrowth

- level of HUTS-21 binding (activated β1 integrin) (β1 integrin): increased
Structure (SMILES): O=S(=O)(NCC1CC1)c1ccc(Nc2nccc(N3CCCc4cc(O)ccc43)n2)cc1 [Ptn, N-(cyclopropylmethyl)-4-(4-(6-hydroxy-3,4-dihydroquinolin-1(2H)-yl)pyrimidin-2-ylamino)benzenesulfonamide]
- maintenance of hESC morphology, pluripotency markers and karyotype (hESCs [2]): maintained the characteristic morphology of hESCs, the expression of typical pluripotency markers, and normal karyotype
- survival and anti-differentiation of stem cells [3]: effective in promoting survival and anti-differentiation
- phosphorylation of ERK and AKT (ERK and AKT): increased
- phosphorylation of growth factor receptor (growth factor receptor): significantly increased
- induction of MET and inhibition of EMT [5]: induce MET (the reverse of EMT) and inhibit EMT
- survival of dissociated hESCs in adherent culture (hESCs [7]): promoted survival; also recorded: dramatic effect on survival
- survival of dissociated hESCs in suspension culture (hESCs [7]): no effect
- adhesion of dissociated hESCs to Matrigel or laminin (hESCs [1]): dramatically increased adhesion
- adhesion of hESCs to gelatin or poly-lysine (hESCs [1]): not affected

Structure (SMILES): CCCCCCCCCCCCCC(=O)O[C@@H]1[C@@H](C)[C@@]2(O)[C@@H](C=C(CO)C[C@]3(O)C(=O)C(C)=C[C@@H]23)[C@@H]2C(C)(C)[C@]12OC(C)=O [PMA, phorbol 12-myristate 13-acetate, reference compound]
- cell adhesion of dissociated hESCs (hESCs [1]; PKC agonist treatment): substantial increase
- integrin activation (β1 integrin; dissociated hESCs, PMA 10 nM (FIG. 3k)): integrin activation
- colony formation of dissociated hESCs (hESCs [9]): substantial increase
